# Reference: ChEMBL document CHEMBL5338752, “Carbamate JNK3 Inhibitors Show Promise as Effective Treatments for Alzheimer's Disease: In Vivo Studies on Mouse Models” (J Med Chem, 2023)
# Calls of active or inactive are those of the source. The calls are words filed in the database; no cut-off is given here.
# Columns and labels:
# [1] = biological target: Mitogen-activated protein kinase 8 (Homo sapiens, UniProt P45983); test: Inhibition of JNK1 (unknown origin) using ATF2 as substrate incubated for 40 mins in presence of [gamma33P]ATP by scintillation counting analysis
# [2] = biological target: T1, Mitogen-activated protein kinase 9 (Homo sapiens, UniProt P45984); test: Inhibition of JNK2 (unknown origin) using ATF2 as substrate incubated for 40 mins in presence of [gamma33P]ATP by scintillation counting analysis
# Target sequence in this assay (P45984 whole entry): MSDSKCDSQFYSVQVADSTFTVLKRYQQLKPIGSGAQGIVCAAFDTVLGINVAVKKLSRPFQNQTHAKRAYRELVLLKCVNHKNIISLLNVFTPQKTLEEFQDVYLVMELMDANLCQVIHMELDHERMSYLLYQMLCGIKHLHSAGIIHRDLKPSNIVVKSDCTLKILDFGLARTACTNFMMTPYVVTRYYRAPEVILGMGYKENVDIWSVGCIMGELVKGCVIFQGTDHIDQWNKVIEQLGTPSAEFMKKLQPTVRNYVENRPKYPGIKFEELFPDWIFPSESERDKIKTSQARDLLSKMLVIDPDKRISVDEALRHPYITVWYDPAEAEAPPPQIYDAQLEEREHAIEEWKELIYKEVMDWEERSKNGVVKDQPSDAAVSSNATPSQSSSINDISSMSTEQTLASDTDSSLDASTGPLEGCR
# [3] = biological target: T2, Mitogen-activated protein kinase 10 (Homo sapiens, UniProt P53779); test: Inhibition of JNK3 (unknown origin) using ATF2 as substrate incubated for 40 mins in presence of [gamma33P]ATP by scintillation counting analysis
# [4] = biological target: T2, Mitogen-activated protein kinase 10; test: Inhibition of JNK3 (unknown origin) at 1.0 uM preincubated for 20 mins followed by 33P-ATP addition and measured after 2 hrs by P81 filter binding method relative to control; conditions: time 140.0 min
# [5] = biological target: T1, Mitogen-activated protein kinase 9; test: Inhibition of JNK2 (unknown origin) at 1.0 uM preincubated for 20 mins followed by 33P-ATP addition and measured after 2 hrs by P81 filter binding method relative to control; conditions: time 140.0 min
# Target sequence in this assay (P45984 whole entry, looked up): as the sequence (P45984 whole entry) above
# [6] = biological target: Mitogen-activated protein kinase 14 (Homo sapiens) (UniProt Q16539); test: Inhibition of p38alpha (unknown origin) at 1.0 uM preincubated for 20 mins followed by 33P-ATP addition and measured after 2 hrs by P81 filter binding method relative to control; conditions: time 140.0 min
# [7] = tested on: Neuron; test: Neuroprotective activity against rat neuron cells assessed as inhibition of Abeta(1-42)-induced cytotoxicity by measuring increase in cell viability at 20 uM incubated for 24 hrs by MTT assay relative to control; assay type: functional
# [8] = tested on: Neuron; test: Neuroprotective activity against rat neuron cells assessed as inhibition of Abeta(1-42)-induced cytotoxicity by measuring increase in cell viability at 20 uM incubated for 48 hrs by MTT assay relative to control; assay type: functional
# [9] = AUClast in sixteen hrs fasted Sprague-Dawley rat at 3 mg/kg, po measured upto 24 hrs by LC-MS/MS analysis; assay type: ADME, organism-based; design: dose 3 mg/kg, time < 24 hrs, route po; conditions: in vivo
# [10] = Tmax in sixteen hrs fasted Sprague-Dawley rat at 3 mg/kg, po measured upto 24 hrs by LC-MS/MS analysis; assay type: ADME, organism-based; conditions: in vivo
# [11] = Effective permeability of compound by […] method; assay type: ADME; conditions: read-out: Peff
# [12] = Apparent permeability of the compound across apical side to basolateral side in human Caco-2 cells; assay type: ADME, cell-based
# [13] = Apparent permeability of the compound across basolateral side to apical side in human Caco-2 cells; assay type: ADME, cell-based
# [14] = Efflux ratio of apparent permeability across basolateral to apical side to apical to basolateral side in human Caco-2 cells; assay type: ADME, cell-based
# [15] = biological target: Mitogen-activated protein kinase 10 (Rattus norvegicus) (UniProt P49187); test: Inhibition of anisomycin induced JNK3 activation in rat cortex neuron cells assessed as reduction in Jun phosphorylation levels at 10 to 20 uM preincubated for 90 mins followed by anisomycin addition and measured after 40 mins by Western blot analysis; assay type: cell-based; conditions: dose 10-20 µM, time 130.0 min
# [16] = tested on: Neuron; test: Inhibition of anisomycin induced JNK activation in rat cortex neuron cells assessed as fold reduction in Jun phosphorylation levels at 10 to 20 uM preincubated for 90 mins followed by anisomycin addition and measured after 40 mins by Western blot analysis; assay type: cell-based; conditions: dose 10-20 µM, time 130.0 min
# [17] = tested on: Neuron; test: Inhibition of apoptosis in rat cortex neuron cells assessed as prevention of A-beta (1 to 42) induced cleaved caspase-3 formation at 10 to 20 uM measured after 24 hrs by Western blot analysis; assay type: functional, cell-based; conditions: dose 10-20 µM
# [18] = tested on: Neuron; test: Inhibition of apoptosis in rat cortex neuron cells assessed as prevention of A-beta (1 to 42) induced cleaved PARP formation at 10 to 20 uM measured after 24 hrs by Western blot analysis; assay type: functional, cell-based; conditions: dose 10-20 µM
# [19] = biological target: Mitogen-activated protein kinase 10 (Rattus norvegicus) (UniProt P49187); test: Inhibition of anisomycin induced JNK3 activation in rat cortex neuron cells assessed as inhibition of APP phosphorylation at 10 to 20 uM preincubated for 90 mins followed by anisomycin addition and measured after 40 mins by Western blot analysis; assay type: cell-based; conditions: dose 10-20 µM
# [20] = tested on: Mus musculus; test: Anti-alzheimer activity against triple transgenic mouse alzheimer disease model assessed as spontaneous alteration at 60 mg/kg, po administered daily for 2.2 months and measured after 119 days by Y-maze test (reference value: 45.55+/-2.30%); assay type: functional; conditions: time 119 day
# [21] = tested on: Mus musculus; test: Anti-alzheimer activity against triple transgenic mouse alzheimer disease model assessed as latency time at 60 mg/kg, po administered daily for 2.2 months and measured after 122 to 123 days by passive avoidance test (reference value: 31.3+/-6.9 sec); assay type: functional; conditions: time 122-123 day
# [22] = tested on: Mus musculus; test: Anti-alzheimer activity against triple transgenic mouse alzheimer disease model assessed as time spent in platform quadrant at 30 mg/kg, po administered daily for 2.2 months and measured after 137 days by Morris water maze test (reference value: 12.26+/-2.34 sec); assay type: functional; conditions: time 137 day
# [23] = tested on: Mus musculus; test: Anti-alzheimer activity against triple transgenic mouse alzheimer disease model assessed as escape latency time at 30 mg/kg, po measured upto 5 days by Morris water maze test (reference value: 58.62+/-1.15 sec); assay type: functional; conditions: time <= 5 day
# [24] = tested on: Mus musculus; test: Anti-alzheimer activity against triple transgenic mouse alzheimer disease model assessed as path length at 60 mg/kg, po measured upto 5 days by Morris water maze test (reference value: 608.85+/-39.27 cm); assay type: functional; conditions: time <= 5 day
# [25] = tested on: Mus musculus; test: Anti-alzheimer activity against APP/PS1 dE9 double transgenic mouse model assessed as spontaneous alteration at 30 mg/kg, po administered daily for 2 months and measured after 57 days by Y-maze test (reference value: 40.75+/-2.25%); assay type: functional; conditions: time 57 day
# [26] = tested on: Mus musculus; test: Anti-alzheimer activity against APP/PS1 dE9 double transgenic mouse model assessed as spontaneous alteration at 60 mg/kg, po administered daily for 2 months and measured after 57 days by Y-maze test (reference value: 40.75+/-2.25%); assay type: functional; conditions: time 57 day
# [27] = tested on: Mus musculus; test: Anti-alzheimer activity against APP/PS1 dE9 double transgenic mouse model assessed as escape latency time at 30 mg/kg, po administered daily for 2 months and measured after 60 days by Passive avoidance test (reference value: 28.6+/-4.3 sec); assay type: functional; conditions: time 60 day
# [28] = tested on: Mus musculus; test: Anti-alzheimer activity against APP/PS1 dE9 double transgenic mouse model assessed as escape latency time at 60 mg/kg, po administered daily for 2 months and measured after 60 days by Passive avoidance test (reference value: 28.6+/-4.3 sec); assay type: functional; conditions: time 60 day
# [29] = tested on: Mus musculus; test: Anti-alzheimer activity against APP/PS1 dE9 double transgenic mouse model assessed as time spent in platform quadrant at 30 mg/kg, po administered daily for 2 months and measured after 74 days by Morris water maze test (reference value: 10.50+/-4.15 sec); assay type: functional; conditions: time 74 day
# [30] = tested on: Mus musculus; test: Anti-alzheimer activity against APP/PS1 dE9 double transgenic mouse model assessed as time spent in target zone at 60 mg/kg, po administered daily for 2 months and measured after 74 days by Morris water maze test (reference value: 6.76+/-3.20 sec); assay type: functional; conditions: time 74 day
# [31] = tested on: Mus musculus; test: Anti-alzheimer activity against triple transgenic mouse alzheimer disease model assessed as reduction in tau phosphorylation level at S202 residue in hippocampal tissue at 30 to 60 mg/kg by Western blot analysis; assay type: functional, organism-based; conditions: dose 30-60 mg/kg
# Chain of Mitogen-activated protein kinase 10 (Rattus norvegicus) (P49187 whole entry): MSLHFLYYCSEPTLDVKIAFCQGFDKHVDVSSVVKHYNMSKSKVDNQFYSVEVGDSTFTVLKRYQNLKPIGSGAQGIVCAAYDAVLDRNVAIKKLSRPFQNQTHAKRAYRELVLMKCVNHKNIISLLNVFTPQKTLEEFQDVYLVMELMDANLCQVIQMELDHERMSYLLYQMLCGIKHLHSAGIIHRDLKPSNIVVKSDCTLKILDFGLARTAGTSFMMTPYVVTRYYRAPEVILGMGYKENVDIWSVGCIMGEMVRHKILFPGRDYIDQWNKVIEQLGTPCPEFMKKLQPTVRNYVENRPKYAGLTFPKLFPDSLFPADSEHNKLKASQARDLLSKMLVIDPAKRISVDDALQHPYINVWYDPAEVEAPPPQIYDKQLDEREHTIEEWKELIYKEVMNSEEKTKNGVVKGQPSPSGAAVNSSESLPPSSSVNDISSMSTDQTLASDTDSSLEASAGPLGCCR
# T2 sequence (P53779 whole entry): as the sequence (P49187 whole entry) above, with H27Q, S32Y, V33I, V34A counted along it
# Chain of Mitogen-activated protein kinase 8 (P45983 whole entry): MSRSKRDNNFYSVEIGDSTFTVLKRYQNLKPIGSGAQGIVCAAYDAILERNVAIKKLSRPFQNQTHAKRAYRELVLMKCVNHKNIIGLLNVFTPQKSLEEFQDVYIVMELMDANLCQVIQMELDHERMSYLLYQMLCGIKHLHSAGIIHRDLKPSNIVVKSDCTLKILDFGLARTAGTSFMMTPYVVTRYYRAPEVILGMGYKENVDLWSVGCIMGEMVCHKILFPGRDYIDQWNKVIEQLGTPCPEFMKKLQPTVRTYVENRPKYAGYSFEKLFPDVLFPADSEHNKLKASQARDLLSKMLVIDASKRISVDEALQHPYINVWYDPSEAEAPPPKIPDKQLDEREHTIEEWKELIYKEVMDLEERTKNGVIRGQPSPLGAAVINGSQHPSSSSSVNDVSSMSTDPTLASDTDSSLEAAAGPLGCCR
# Chain of Mitogen-activated protein kinase 14 (Homo sapiens) (Q16539 whole entry): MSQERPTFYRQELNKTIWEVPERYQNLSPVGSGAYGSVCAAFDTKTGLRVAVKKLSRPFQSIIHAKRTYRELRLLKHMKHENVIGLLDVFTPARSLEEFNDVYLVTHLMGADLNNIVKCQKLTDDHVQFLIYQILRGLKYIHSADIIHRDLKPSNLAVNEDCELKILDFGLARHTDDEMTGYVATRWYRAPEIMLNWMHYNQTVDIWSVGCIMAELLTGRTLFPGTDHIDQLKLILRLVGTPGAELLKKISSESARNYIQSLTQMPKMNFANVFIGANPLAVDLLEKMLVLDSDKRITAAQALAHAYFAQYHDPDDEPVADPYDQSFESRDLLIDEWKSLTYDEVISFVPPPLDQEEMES
compound,measurement,setting,value
CNC(=O)Oc1cc(F)c2nc(-c3ccc4ccccc4c3)n(-c3ccnc(N[C@H]4CCCN(C(=O)C5CC5)C4)n3)c2c1,IC50,[1],> 10000 nM
same,IC50,[2],2200 nM
same,IC50,[3],21 nM
same,inhibition,[4],100%
same,inhibition,[5],20%
same,inhibition,[6],20%
same,Activity,[7],47.5%
same,Activity,[8],28.4%
same,AUC(0-t) at 24 h,[9],727 ng·h/mL
same,Tmax,[10],23.4 min
same,Papp,[11],55.8 ×10⁻⁶ cm/s
same,Papp A→B,[12],1.7 ×10⁻⁶ cm/s
same,Papp B→A,[13],25.2 ×10⁻⁶ cm/s
same,efflux ratio,[14],14.7
same,inhibition,[15],Active
same,fold change (FC),[16],2
same,inhibition,[17],Active
same,inhibition,[18],Active
same,inhibition,[19],Active
same,Activity,[20],54.62%
same,Time,[21],64.4 s
same,Time,[22],23.4 s
same,Time,[23],26.61 s
same,Activity,[24],372.7 cm
same,Activity,[25],50.6%
same,Activity,[26],54.23%
same,Time,[27],44.2 s
same,Time,[28],46.5 s
same,Time,[29],16.44 s
same,Time,[30],16.27 s
same,Activity,[31],Active
